In patent US11957687B2 (REGENERON PHARMACEUTICALS, INC., priority 2019, dated 2024):
pIC50: −log10 of the molar value.

Target: HSD17B13 (Homo sapiens (Human), UniProt Q7Z5P4)
Test: HSD17B13 enzymatic inhibition assay (150 nM or 50 nM HSD17B13)
Format: biochemical
Conditions: 50 nM HSD17B13; read-out: Inhibition of 50 nM of HSD17B13 IC50

Sequence of HSD17B13 (Q7Z5P4 other isoform, or with tags, fused parts or gaps): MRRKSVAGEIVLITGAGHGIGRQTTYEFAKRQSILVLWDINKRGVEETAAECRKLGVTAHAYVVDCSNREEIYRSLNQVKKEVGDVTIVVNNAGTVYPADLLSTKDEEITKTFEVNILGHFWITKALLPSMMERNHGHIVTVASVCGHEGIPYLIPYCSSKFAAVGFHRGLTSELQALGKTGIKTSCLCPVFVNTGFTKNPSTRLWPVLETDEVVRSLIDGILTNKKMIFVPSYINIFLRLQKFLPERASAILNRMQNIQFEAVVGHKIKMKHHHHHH

SMILES | pIC50
COc1cccc(C(NC(=O)c2ccc(C(F)(F)F)[nH]c2=O)c2ccc(C)cc2)c1 (centres unmarked) [Compound 446, N-((3-methoxyphenyl)(p-tolyl)methyl)-2-oxo-6-(trifluoromethyl)-1,2-dihydropyridine-3-carboxamide] | 6.57
O=C(NC1c2ccccc2C=Cc2ccccc21)c1ccc(C(F)(F)F)[nH]c1=O [Compound 5A, N-(5H-dibenzo[a,d][7]annulen-5-yl)-2-oxo-6-(trifluoromethyl)-1,2-dihydropyridine-3-carboxamide] | 5.82
Cc1ccc2c(c1)Sc1cccc(C)c1C2NC(=O)c1ccc(C(F)(F)F)[nH]c1=O (centres unmarked) [Compound 253, N-(1,6-dimethyl-9H-thioxanthen-9-yl)-2-oxo-6-(trifluoromethyl)-1,2-dihydropyridine-3-carboxamide] | 5.37
CCc1cccc(C(NC(=O)c2ccc(C(F)(F)F)[nH]c2=O)c2ccccc2)c1 (centres unmarked) [Compound 466, N-((3-ethylphenyl)(phenyl)methyl)-2-oxo-6-(trifluoromethyl)-1,2-dihydropyridine-3-carboxamide] | 6.22
Cc1ccc(C(C(=O)Nc2ccc(C(F)(F)F)[nH]c2=O)c2ccc(C)cc2)cc1 [Compound 492, N-(2-oxo-6-(trifluoromethyl)-1,2-dihydropyridin-3-yl)-2,2-di-p-tolylacetamide] | < 5.00
Cc1ccc2c(c1)S(=O)(=O)c1cc(C)ccc1C2NC(=O)c1cc(C)c(C(F)(F)F)[nH]c1=O [Compound 474, N-(3,6-dimethyl-10,10-dioxido-9H-thioxanthen-9-yl)-5-methyl-2-oxo-6-(trifluoromethyl)-1,2-dihydropyridine-3-carboxamide] | 7.52
C=CCc1cc(C(=O)NC2c3ccc(C)cc3Oc3cccc(C)c32)c(=O)[nH]c1C(F)(F)F (centres unmarked) [Compound 180, 5-allyl-N-(1,6-dimethyl-9H-xanthen-9-yl)-2-oxo-6-(trifluoromethyl)-1,2-dihydropyridine-3-carboxamide] | 6.80
Cc1ccc2c(c1)SCCC2NC(=O)c1ccc(C(F)(F)F)[nH]c1=O (centres unmarked) [Compound 396, N-(7-methylthiochroman-4-yl)-2-oxo-6-(trifluoromethyl)-1H-pyridine-3-carboxamide] | 6.59
O=C(NC1c2ccc(Cl)cc2Oc2cccc(Cl)c21)c1ccc[nH]c1=O (centres unmarked) [Compound 254, N-(1,6-dichloro-9H-xanthen-9-yl)-2-oxo-1,2-dihydropyridine-3-carboxamide] | < 5.00
CC(C)(C)OC(=O)N1Cc2ccccc2C(NC(=O)c2ccc(C(F)(F)F)[nH]c2=O)C1 (centres unmarked) [Compound 317, tert-butyl 4-(2-oxo-6-(trifluoromethyl)-1,2-dihydropyridine-3-carboxamido)-3,4-dihydroisoquinoline-2(1H)-carboxylate] | 5.39
Cc1ccc2c(c1)Oc1cc(C)ccc1C2NC(=O)c1cc(N2CCNCC2)c(C(F)(F)F)[nH]c1=O [Compound 434, N-(3,6-dimethyl-9H-xanthen-9-yl)-2-oxo-5-(piperazin-1-yl)-6-(trifluoromethyl)-1,2-dihydropyridine-3-carboxamide] | 6.96
C=CCc1cc(C(=O)NC2c3ccc(Cl)cc3Oc3cccc(Cl)c32)c(=O)[nH]c1C(F)(F)F (centres unmarked) [Compound 174, 5-allyl-N-(1,6-dichloro-9H-xanthen-9-yl)-2-oxo-6-(trifluoromethyl)-1,2-dihydropyridine-3-carboxamide] | 6.62
O=C(NC(c1ccccc1)c1ccccc1C(F)(F)F)c1ccc(C(F)(F)F)[nH]c1=O (centres unmarked) [Compound 17A, 2-oxo-N-(phenyl(2-(trifluoromethyl)phenyl)methyl)-6-(trifluoromethyl)-1,2-dihydropyridine-3-carboxamide] | 5.51
O=C(NC(c1ccccc1)c1ccc2c(c1)CCC2)c1ccc(C(F)(F)F)[nH]c1=O (centres unmarked) [Compound 90, N-((2,3-dihydro-1H-inden-5-yl)(phenyl)methyl)-2-oxo-6-(trifluoromethyl)-1,2-dihydropyridine-3-carboxamide] | 6.28
Cc1ccc2c(c1)C(NC(=O)c1ccc(C(F)(F)F)[nH]c1=O)CC(C)S2 (centres unmarked) [Compound 386, N-(2,6-dimethylthiochroman-4-yl)-2-oxo-6-(trifluoromethyl)-1,2-dihydropyridine-3-carboxamide] | 6.77
O=C(NC(c1ccccc1)c1ccc2c(c1)CCO2)c1ccc(C(F)(F)F)[nH]c1=O (centres unmarked) [Compound 91, N-((2,3-dihydrobenzofuran-5-yl)(phenyl)methyl)-2-oxo-6-(trifluoromethyl)-1,2-dihydropyridine-3-carboxamide] | 6.04
CCc1ccc(C(=O)NC2c3ccccc3-c3ccccc32)c(=O)[nH]1 [Compound 212, 6-ethyl-N-(9H-fluoren-9-yl)-2-oxo-1,2-dihydropyridine-3-carboxamide] | < 5.00
O=C(NC(c1ccccc1)c1ccc2c(c1)CNCC2)c1ccc(C(F)(F)F)[nH]c1=O (centres unmarked) [Compound 108, 2-oxo-N-(phenyl(1,2,3,4-tetrahydroisoquinolin-7-yl)methyl)-6-(trifluoromethyl)-1,2-dihydropyridine-3-carboxamide] | < 5.00
Cc1cc(C(F)(F)F)[nH]c(=O)c1C(=O)NC1c2ccccc2Oc2ccccc21 [Compound 195, 4-methyl-2-oxo-6-(trifluoromethyl)-N-(9H-xanthen-9-yl)-1,2-dihydropyridine-3-carboxamide] | 5.48
COc1ccc2c(c1)C(NC(=O)c1ccc(C(F)(F)F)[nH]c1=O)c1ccncc1O2 (centres unmarked) [Compound 319, N-(7-methoxy-5H-chromeno[2,3-c]pyridin-5-yl)-2-oxo-6-(trifluoromethyl)-1,2-dihydropyridine-3-carboxamide] | 6.08
COc1c(C)cccc1C(NC(=O)c1ccc(C(F)(F)F)[nH]c1=O)c1ccccc1 (centres unmarked) [Compound 451, N-((2-methoxy-3-methylphenyl)(phenyl)methyl)-2-oxo-6-(trifluoromethyl)-1,2-dihydropyridine-3-carboxamide] | 5.71
Cc1ccc2c(c1)Oc1cc(C)ccc1C2NC(=O)c1ccc(C(F)F)[nH]c1=O [Compound 280, 6-(difluoromethyl)-N-(3,6-dimethyl-9H-xanthen-9-yl)-2-oxo-1,2-dihydropyridine-3-carboxamide] | 6.96
Cc1ccc(C(NC(=O)c2cc(C)c(C(F)F)[nH]c2=O)c2ccc(C)cc2)cc1 [Compound 117, N-(di-p-tolylmethyl)-6-(difluoromethyl)-5-methyl-2-oxo-1,2-dihydropyridine-3-carboxamide] | < 5.00
O=C(NC1c2ccccc2Oc2cc(C3COC3)ccc21)c1ccc(C(F)(F)F)[nH]c1=O (centres unmarked) [Compound 488, N-(3-(oxetan-3-yl)-9H-xanthen-9-yl)-2-oxo-6-(trifluoromethyl)-1,2-dihydropyridine-3-carboxamide] | 6.96
O=C(NC(c1ccncc1)c1ccc(Cl)cc1)c1ccc(C(F)(F)F)[nH]c1=O (centres unmarked) [Compound 68, N-((4-chlorophenyl)(pyridin-4-yl)methyl)-2-oxo-6-(trifluoromethyl)-1,2-dihydropyridine-3-carboxamide] | 5.60
COc1ccc2c(c1)Oc1cccnc1C2NC(=O)c1ccc(C(F)(F)F)[nH]c1=O (centres unmarked) [Compound 322, N-(7-methoxy-10H-chromeno[3,2-b]pyridin-10-yl)-2-oxo-6-(trifluoromethyl)-1,2-dihydropyridine-3-carboxamide] | 6.52
